According to patent publication US7258738B2, “Cementing compositions including salts” (Halliburton Energy Services, Inc., priority 2005, dated 2007):

Columns and labels:
acartia tonsa = assay: Crustacean toxicity, ISO 14669; assay type: in vivo; settings: amount required to kill or incapacitate half the test population
Excerpt: (§1) According to still other embodiments described herein, a disulfonate salt of 2,4-pentanedione is provided. According to one such embodiment, the salt comprises 2,4-pentanedione-1,5-sodium disulfonate. According to another such embodiment, a disulfonate salt of 2,4-pentanedione has an environmentally acceptable toxicity. As used herein, the term “environmentally acceptable toxicity” means that, when tested according to procedures that are the same as or equivalent to those set forth by the OSPAR Guidelines for Completing the Harmonised Offshore Chemical Notification Format (HOCNF) (References number: 2003-1) that were in effect on Dec. 31, 2004, the salt is determined to have a toxicity of greater than about 10,000 mg/L for an algae (skeletonema costatum), a crustacean (acartia tonsa), a fish (scopthalmus) and a sediment reworker (corophium volutator). […]
(§2) In this Example 3, the toxicity results for the skeletonema costatum were determined according to ISO (International Organization for Standardization) 10253, the protocol for which is known to those of ordinary skill in the art, and is also the protocol required under the above-referenced HOCNF Guidelines. The toxicity results for the acartia tonsa were determined according to ISO 14669, the protocol for which is known to those of ordinary skill in the art. […]

corophium volutator = assay: Sediment reworker toxicity, Part B of the OSPAR Protocols; assay type: in vivo; settings: amount required to kill or incapacitate half the test population
Excerpt: as §1, §2

scopthalmus = assay: Fish toxicity, Part B of the OSPAR Protocols; assay type: in vivo; settings: amount required to kill or incapacitate half the test population
Excerpt: as §1, §2

[1] = Solubility of salt compared to free acid (methanol rinse); assay type: physicochemical
Excerpt: The neutralized product was then rinsed several times with methanol to remove by-product acids, or any salts formed therefrom, while leaving the 2,4-pentanedione-1,5-sodium disulfonate primarily undissolved. […] The rinsed product was dried in a vacuum oven and filtered through a 300 mesh screen to afford a flowing pale orange/red powder. The resulting powder was 2,4-pentanedione-1,5-sodium disulfonate.

skeletonema costatum = assay: Algae toxicity, ISO 10253 (HOCNF); assay type: in vivo; settings: amount required to kill or incapacitate half the test population
Excerpt: as §1, §2

**Q.** With `O=C(CC(=O)CS(=O)(=O)[O-])CS(=O)(=O)[O-].[Na+].[Na+]` [2,4-pentanedione-1,5-sodium disulfonate] as the compound, how does the toxicity (acartia tonsa) read?
**A.** greater than 10,000 mg/L

**Q.** What about the toxicity (corophium volutator) of the same compound?
**A.** greater than 10,000 mg/L

**Q.** And the toxicity (scopthalmus)?
**A.** greater than 10,000 mg/L

**Q.** And the “solubility compared to the 2,4-pentanedione-1,5-disulfonic free acid” value [1]?
**A.** significantly less soluble

**Q.** What about the toxicity (skeletonema costatum) of the same compound?
**A.** greater than 10,000 mg/L
